IC50 and Ki data for 17 molecules are collected here from ChEMBL document CHEMBL1909046, “DrugMatrix in vitro pharmacology data”.

The target in assay [1] is T1, Alpha-2C adrenergic receptor (Homo sapiens, UniProt P18825).
T1 sequence (P18825 whole entry): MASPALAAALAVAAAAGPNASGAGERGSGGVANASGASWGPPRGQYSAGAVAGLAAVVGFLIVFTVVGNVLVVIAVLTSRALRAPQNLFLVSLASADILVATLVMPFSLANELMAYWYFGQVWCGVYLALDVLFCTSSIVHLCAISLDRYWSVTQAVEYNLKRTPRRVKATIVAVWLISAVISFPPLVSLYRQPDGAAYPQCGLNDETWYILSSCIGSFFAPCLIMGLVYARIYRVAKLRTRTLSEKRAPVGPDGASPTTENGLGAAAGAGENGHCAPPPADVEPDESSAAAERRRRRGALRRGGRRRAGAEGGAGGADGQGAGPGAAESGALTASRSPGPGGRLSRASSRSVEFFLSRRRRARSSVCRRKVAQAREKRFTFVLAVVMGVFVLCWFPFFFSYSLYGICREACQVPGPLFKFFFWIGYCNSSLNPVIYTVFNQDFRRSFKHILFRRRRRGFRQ
Description: DRUGMATRIX: Adrenergic Alpha-2C radioligand binding (ligand: [3H] MK-912). The settings on record: for Ki: read-out: Ki. The format is cell membranes, Sf9, Membrane.

For a further assay, the target named is T2, Glucocorticoid receptor (Homo sapiens, UniProt P04150). Further: in other assays of this panel Not Active means under 50% inhibition at 10 µM.
T2 sequence (P04150 whole entry): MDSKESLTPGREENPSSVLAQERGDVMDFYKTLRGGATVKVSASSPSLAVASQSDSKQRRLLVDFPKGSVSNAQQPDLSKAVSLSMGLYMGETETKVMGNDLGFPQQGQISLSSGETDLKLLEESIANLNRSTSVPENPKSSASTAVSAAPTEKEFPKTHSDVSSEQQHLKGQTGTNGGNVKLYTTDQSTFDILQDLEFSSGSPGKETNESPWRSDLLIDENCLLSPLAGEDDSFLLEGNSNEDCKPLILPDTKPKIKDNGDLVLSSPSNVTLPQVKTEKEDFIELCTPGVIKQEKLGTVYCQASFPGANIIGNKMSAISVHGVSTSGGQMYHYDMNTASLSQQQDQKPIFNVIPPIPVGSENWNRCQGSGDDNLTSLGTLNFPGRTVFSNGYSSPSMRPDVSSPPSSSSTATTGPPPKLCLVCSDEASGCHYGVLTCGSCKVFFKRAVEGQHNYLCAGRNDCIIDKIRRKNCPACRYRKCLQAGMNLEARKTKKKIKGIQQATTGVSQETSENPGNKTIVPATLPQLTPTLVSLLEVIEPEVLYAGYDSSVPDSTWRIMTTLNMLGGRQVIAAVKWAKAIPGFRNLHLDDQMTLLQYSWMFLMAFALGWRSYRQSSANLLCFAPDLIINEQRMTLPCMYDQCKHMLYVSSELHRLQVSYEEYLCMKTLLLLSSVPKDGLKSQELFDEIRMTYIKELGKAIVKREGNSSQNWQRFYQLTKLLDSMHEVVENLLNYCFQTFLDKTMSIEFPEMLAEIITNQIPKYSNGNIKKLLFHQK
The conditions noted are these: hela s3.

For a further assay, the target named is Insulin receptor (Rattus norvegicus, UniProt P15127). The assay is classed as cell membranes, Wistar, Liver, Membrane. Further: in other assays of this panel Not Active means under 50% inhibition at 10 µM.
Chain of Insulin receptor (P15127 27-759 limits assumed): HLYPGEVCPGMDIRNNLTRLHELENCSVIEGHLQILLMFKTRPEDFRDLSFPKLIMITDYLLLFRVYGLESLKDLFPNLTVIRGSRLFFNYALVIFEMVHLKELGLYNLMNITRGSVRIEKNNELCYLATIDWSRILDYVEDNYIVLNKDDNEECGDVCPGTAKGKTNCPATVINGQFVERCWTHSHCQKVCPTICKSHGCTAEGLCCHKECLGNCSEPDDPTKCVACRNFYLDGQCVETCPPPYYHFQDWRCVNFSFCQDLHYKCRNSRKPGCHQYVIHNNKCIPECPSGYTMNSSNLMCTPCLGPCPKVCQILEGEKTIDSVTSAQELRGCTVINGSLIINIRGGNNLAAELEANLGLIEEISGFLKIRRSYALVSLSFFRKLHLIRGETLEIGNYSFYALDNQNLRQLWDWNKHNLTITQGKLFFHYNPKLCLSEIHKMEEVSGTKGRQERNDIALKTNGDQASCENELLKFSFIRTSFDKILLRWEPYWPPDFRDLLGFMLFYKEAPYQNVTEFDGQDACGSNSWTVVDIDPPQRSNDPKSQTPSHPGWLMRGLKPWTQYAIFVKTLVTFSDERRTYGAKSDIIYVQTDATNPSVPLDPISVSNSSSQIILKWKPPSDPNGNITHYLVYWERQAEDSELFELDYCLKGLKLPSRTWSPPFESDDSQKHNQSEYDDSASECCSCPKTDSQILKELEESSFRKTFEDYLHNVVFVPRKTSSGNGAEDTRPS
Chain of Insulin receptor (P15127 764-1383 limits assumed): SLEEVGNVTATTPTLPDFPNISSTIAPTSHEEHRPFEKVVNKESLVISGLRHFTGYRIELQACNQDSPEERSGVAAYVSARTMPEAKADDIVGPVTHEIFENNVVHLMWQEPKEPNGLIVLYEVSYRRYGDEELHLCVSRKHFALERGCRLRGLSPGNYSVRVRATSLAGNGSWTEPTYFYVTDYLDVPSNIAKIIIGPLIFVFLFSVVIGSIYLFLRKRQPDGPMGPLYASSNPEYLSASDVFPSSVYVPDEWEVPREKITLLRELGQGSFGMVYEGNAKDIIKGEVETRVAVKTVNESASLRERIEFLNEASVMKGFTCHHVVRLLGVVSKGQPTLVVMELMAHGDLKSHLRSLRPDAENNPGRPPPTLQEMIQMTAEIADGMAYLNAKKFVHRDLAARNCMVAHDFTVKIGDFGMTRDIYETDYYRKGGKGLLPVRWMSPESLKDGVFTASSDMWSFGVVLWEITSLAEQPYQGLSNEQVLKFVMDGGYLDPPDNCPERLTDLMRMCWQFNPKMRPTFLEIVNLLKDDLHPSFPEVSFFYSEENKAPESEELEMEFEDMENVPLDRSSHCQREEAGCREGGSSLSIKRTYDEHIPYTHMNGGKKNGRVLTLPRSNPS
The target in assay [2] is Vascular endothelial growth factor receptor 1 (Homo sapiens, UniProt P17948). Nature of the assay: biochemical. The format is cell-based, HUVEC. The conditions noted are these: huvec. Further: in other assays of this panel Not Active means under 50% inhibition at 10 µM.
Chain of Vascular endothelial growth factor receptor 1 (P17948 whole entry): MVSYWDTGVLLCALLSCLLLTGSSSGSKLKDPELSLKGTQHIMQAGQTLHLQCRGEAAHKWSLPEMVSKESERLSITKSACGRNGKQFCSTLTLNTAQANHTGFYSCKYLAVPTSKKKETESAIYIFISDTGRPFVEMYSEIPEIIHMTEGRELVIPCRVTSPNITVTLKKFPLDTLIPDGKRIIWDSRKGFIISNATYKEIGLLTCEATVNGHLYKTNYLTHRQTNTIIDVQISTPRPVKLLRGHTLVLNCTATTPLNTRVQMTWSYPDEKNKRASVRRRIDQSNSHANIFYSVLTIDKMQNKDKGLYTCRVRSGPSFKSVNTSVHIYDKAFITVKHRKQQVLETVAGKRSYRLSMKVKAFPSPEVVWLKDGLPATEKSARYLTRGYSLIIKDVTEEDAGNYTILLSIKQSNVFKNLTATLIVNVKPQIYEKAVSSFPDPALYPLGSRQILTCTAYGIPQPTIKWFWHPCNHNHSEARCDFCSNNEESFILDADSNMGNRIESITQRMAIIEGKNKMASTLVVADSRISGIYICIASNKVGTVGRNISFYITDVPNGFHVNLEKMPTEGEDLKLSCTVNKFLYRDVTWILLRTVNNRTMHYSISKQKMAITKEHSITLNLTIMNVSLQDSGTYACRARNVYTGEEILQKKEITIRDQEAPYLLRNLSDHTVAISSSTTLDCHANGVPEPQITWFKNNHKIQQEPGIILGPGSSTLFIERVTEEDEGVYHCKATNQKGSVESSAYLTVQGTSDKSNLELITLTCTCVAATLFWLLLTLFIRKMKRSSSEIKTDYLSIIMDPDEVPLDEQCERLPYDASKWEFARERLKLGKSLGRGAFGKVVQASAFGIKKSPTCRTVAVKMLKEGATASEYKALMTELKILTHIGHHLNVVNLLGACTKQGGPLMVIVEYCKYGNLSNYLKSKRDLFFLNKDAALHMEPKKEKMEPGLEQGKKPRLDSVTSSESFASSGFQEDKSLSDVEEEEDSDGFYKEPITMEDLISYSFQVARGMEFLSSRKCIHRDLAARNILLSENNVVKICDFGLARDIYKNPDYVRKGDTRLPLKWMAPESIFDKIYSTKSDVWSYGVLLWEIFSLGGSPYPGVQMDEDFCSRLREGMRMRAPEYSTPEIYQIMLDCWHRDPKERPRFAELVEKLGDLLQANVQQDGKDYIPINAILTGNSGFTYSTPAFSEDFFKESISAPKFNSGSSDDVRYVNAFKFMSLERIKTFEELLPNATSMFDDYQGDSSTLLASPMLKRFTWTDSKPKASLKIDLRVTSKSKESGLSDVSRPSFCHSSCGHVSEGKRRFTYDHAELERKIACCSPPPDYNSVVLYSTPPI
Assay [3] has as its target Prostaglandin G/H synthase 1 (Homo sapiens, UniProt P23219). Nature of the assay: biochemical. The format is tissue-based, Platelet.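 Further: inhibition of COX-1 enzyme activity, with arachidonic acid supplied as substrate; in other assays of this panel Not Active means under 50% inhibition at 10 µM.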
A further assay concerns the target T3, Adenosine receptor A1 (Homo sapiens, UniProt P30542).
T3 sequence (P30542 whole entry): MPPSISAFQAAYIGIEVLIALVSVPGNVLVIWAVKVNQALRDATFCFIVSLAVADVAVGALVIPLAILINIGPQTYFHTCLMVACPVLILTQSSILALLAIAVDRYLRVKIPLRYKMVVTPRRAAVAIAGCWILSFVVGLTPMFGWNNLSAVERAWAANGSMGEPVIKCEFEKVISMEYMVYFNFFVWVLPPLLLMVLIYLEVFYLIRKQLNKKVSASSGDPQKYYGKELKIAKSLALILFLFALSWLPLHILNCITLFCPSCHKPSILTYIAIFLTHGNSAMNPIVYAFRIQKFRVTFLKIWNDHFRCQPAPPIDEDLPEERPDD
The format is cell membranes, CHO, Membrane. The conditions noted are these: cho.

A further assay concerns the target Acetylcholinesterase (Homo sapiens, UniProt P22303). Description: DRUGMATRIX: Acetylcholinesterase enzyme inhibition (substrate: acetylthiocholine). The conditions noted are these: hek293; Not Active = under 50% inhibition at 10 µM. The assay is classed as cell-based, HEK293.
The target of assay [4] is Beta-2 adrenergic receptor (Homo sapiens, UniProt P07550). Nature of the assay: DRUGMATRIX: Adrenergic beta2 radioligand binding (ligand: [3H] CGP-12177). The assay is classed as cell membranes, CHO, Membrane. The conditions noted are these: cho; Not Active = under 50% inhibition at 10 µM.
Chain of Beta-2 adrenergic receptor (P07550 whole entry): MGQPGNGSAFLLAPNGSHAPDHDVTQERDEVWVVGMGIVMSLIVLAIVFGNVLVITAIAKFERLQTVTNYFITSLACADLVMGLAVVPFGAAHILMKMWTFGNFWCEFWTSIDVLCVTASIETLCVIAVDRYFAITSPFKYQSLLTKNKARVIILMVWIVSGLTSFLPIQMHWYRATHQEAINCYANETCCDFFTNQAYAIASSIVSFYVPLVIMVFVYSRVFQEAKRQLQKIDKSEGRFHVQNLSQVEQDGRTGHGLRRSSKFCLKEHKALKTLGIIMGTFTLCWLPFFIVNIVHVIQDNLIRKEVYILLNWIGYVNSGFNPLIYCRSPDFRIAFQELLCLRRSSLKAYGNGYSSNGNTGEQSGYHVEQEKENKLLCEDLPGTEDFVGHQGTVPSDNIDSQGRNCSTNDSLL

Chain of Prostaglandin G/H synthase 1 (P23219 whole entry): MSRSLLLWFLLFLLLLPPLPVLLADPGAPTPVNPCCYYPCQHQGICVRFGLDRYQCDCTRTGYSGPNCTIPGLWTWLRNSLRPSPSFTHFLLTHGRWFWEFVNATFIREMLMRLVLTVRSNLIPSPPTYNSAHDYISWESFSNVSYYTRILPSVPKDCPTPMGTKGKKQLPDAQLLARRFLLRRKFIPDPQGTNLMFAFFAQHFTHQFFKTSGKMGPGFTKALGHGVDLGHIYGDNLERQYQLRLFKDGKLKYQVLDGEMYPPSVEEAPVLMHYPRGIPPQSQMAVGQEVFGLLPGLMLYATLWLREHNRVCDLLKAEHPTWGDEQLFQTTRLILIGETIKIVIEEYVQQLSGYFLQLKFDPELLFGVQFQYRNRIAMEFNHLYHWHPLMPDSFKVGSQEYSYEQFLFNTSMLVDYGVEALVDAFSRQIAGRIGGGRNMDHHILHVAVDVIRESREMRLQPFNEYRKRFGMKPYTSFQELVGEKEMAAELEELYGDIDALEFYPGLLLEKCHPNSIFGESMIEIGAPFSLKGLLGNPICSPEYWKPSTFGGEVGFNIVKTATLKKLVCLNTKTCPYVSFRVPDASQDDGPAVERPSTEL
Chain of Acetylcholinesterase (P22303 whole entry): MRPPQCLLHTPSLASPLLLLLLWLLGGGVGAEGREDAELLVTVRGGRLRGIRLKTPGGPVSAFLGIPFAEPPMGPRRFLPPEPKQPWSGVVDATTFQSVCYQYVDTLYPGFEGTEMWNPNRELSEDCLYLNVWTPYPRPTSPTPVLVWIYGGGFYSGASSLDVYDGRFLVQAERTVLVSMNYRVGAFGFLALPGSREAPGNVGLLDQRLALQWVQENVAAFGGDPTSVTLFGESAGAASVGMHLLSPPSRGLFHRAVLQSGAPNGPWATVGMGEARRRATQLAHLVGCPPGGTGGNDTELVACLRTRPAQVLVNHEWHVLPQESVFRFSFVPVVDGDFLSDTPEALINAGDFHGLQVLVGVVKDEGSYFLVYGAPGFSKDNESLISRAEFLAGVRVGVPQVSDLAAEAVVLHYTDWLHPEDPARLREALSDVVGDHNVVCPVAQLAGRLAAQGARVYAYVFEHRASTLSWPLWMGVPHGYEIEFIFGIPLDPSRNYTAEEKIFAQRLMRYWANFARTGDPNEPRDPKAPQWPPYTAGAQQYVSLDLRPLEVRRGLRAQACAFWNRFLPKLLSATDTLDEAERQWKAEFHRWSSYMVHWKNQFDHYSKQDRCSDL

A word on the IC50: it is the midpoint of a concentration-inhibition curve. For orientation: Ki means the equilibrium dissociation constant of an inhibitor or competing ligand from its target. Regarding `Fc1ccc(C(c2ccc(F)cc2)N2CCN(C/C=C/c3ccccc3)CC2)cc1` [FLUNARIZINE], the IC50 is 222 nM in assay [1] (read-out: IC50); “Not Active” on Glucocorticoid receptor; “Not Active” at Insulin receptor; “Not Active” in assay [2]; “Not Active” in assay [3] (platelet); “Not Active” at Adenosine receptor A1. Further, the IC50 entry (at Acetylcholinesterase; in assay [4]) was “Not Active” throughout. Further, in assay [1], the Ki was determined as 32 nM.

In the case of `CNCCC(Oc1ccc(C(F)(F)F)cc1)c1ccccc1` (stereo not drawn) [FLUOXETINE], the half-maximal inhibitory concentration (IC50) result (in assay [1] (sf9); against Glucocorticoid receptor; against Insulin receptor; in assay [2]; in assay [3] (platelet); against Adenosine receptor A1) was “Not Active” throughout. Further, the 50% inhibitory concentration (IC50) result (on Acetylcholinesterase; in assay [4]) was “Not Active” each time.

As to `CNC1(c2ccccc2Cl)CCCCC1=O` (stereo not drawn) [KETAMINE], the 50% inhibitory concentration (IC50) entry (in assay [1] (sf9); at Glucocorticoid receptor; against Insulin receptor; in assay [2]; in assay [3] (platelet); against Adenosine receptor A1) was “Not Active” throughout. The IC50 result (at Acetylcholinesterase; in assay [4]) was “Not Active” each time.

Take `N#Cc1ccc(C(c2ccc(C#N)cc2)n2cncn2)cc1` [LETROZOLE]: the 50% inhibitory concentration (IC50) entry (in assay [1] (sf9); at Glucocorticoid receptor; at Insulin receptor; in assay [2]; in assay [3] (platelet); on Adenosine receptor A1) was “Not Active” in each case. The IC50 entry (against Acetylcholinesterase; in assay [4]) was “Not Active” throughout.

As for `CCN1CCC[C@H]1CNC(=O)c1cc(S(N)(=O)=O)ccc1OC` [LEVOSULPIRIDE], the IC50 entry (in assay [1] (sf9); against Glucocorticoid receptor; against Insulin receptor; in assay [2]; in assay [3] (platelet); against Adenosine receptor A1) was “Not Active” each time. Also, the IC50 entry (against Acetylcholinesterase; in assay [4]) was “Not Active” in each case.

Regarding `CCN(CC)CC(=O)Nc1c(C)cccc1C` [LIDOCAINE], the 50% inhibitory concentration (IC50) result (in assay [1] (sf9); on Glucocorticoid receptor; at Insulin receptor; in assay [2]; in assay [3] (platelet); against Adenosine receptor A1) was “Not Active” in each case. Also, the IC50 entry (against Acetylcholinesterase; in assay [4]) was “Not Active” throughout.

As to `O=C1Nc2ccc(Cl)cc2C(c2ccccc2Cl)=NC1O` (stereo not drawn) [LORAZEPAM], the IC50 result (in assay [1] (sf9); against Glucocorticoid receptor; against Insulin receptor; in assay [2]; in assay [3] (platelet); against Adenosine receptor A1) was “Not Active” throughout. The half-inhibitory concentration (IC50) entry (against Acetylcholinesterase; in assay [4]) was “Not Active” in each case.

Turning to `CO[C@@H]1[C@@H](OC)[C@H](C)[C@@](O)(CC(=O)O)O[C@H]1[C@H](C)[C@H]1O[C@@]2(CC[C@@](C)([C@H]3CC[C@@](C)([C@@H]4O[C@@H]([C@H]5O[C@](C)(O)[C@H](C)C[C@@H]5C)C[C@@H]4O[C@@H]4C[C@H](OC)[C@@H](OC)[C@H](C)O4)O3)O2)C[C@H](O)[C@H]1C` [MADURAMICIN ACID], the IC50 in assay [1] (read-out: IC50) is 1610 nM; against Glucocorticoid receptor it was “Not Active”; against Insulin receptor, “Not Active”; in assay [2], “Not Active”; in assay [3] (platelet), “Not Active”; at Adenosine receptor A1, “Not Active”. In addition, the IC50 entry (against Acetylcholinesterase; in assay [4]) was “Not Active” throughout. Besides, the inhibitory constant (Ki) in assay [1] was 234 nM.

Turning to `COc1c2occc2cc2ccc(=O)oc12` [METHOXSALEN], the concentration for half-maximal inhibition (IC50) result (in assay [1] (sf9); on Glucocorticoid receptor; at Insulin receptor; in assay [2]; in assay [3] (platelet); at Adenosine receptor A1) was “Not Active” each time. The IC50 entry (at Acetylcholinesterase; in assay [4]) was “Not Active” in each case.

For the molecule `Nc1cc(N2CCCCC2)nc(N)[n+]1[O-]` [MINOXIDIL], the IC50 entry (in assay [1] (sf9); against Glucocorticoid receptor; against Insulin receptor; in assay [2]; in assay [3] (platelet); against Adenosine receptor A1) was “Not Active” throughout. Besides, the IC50 result (against Acetylcholinesterase; in assay [4]) was “Not Active” each time.

Consider `CO[C@H]1/C=C/O[C@@]2(C)Oc3c(C)c(O)c4c(O)c(c(/C=N/N5CCN(C6CCCC6)CC5)c(O)c4c3C2=O)NC(=O)/C(C)=C\C=C\[C@H](C)[C@H](O)[C@@H](C)[C@@H](O)[C@@H](C)[C@H](OC(C)=O)[C@@H]1C` [RIFAPENTINE], for which the 50% inhibitory concentration (IC50) result (in assay [1] (sf9); against Glucocorticoid receptor; on Insulin receptor; in assay [2]; in assay [3] (platelet); on Adenosine receptor A1) was “Not Active” throughout. For the same molecule, the IC50 result (against Acetylcholinesterase; in assay [4]) was “Not Active” in each case.

With `CCCCOc1cc(CC2CNC(=O)N2)ccc1OC` (stereo not drawn) [RO-201724], the concentration for half-maximal inhibition (IC50) result (in assay [1] (sf9); against Glucocorticoid receptor; against Insulin receptor; in assay [2]; in assay [3] (platelet); against Adenosine receptor A1) was “Not Active” in each case. Moreover, the IC50 result (against Acetylcholinesterase; in assay [4]) was “Not Active” in each case.

For `O=C(O)c1cn(-c2ccc(F)cc2)c2cc(N3CCNCC3)c(F)cc2c1=O` [SARAFLOXACIN], the IC50 result (in assay [1] (sf9); against Glucocorticoid receptor; at Insulin receptor; in assay [2]; in assay [3] (platelet); against Adenosine receptor A1) was “Not Active” throughout. In addition, the IC50 entry (against Acetylcholinesterase; in assay [4]) was “Not Active” throughout.

Consider `O=C1C(CC[S+]([O-])c2ccccc2)C(=O)N(c2ccccc2)N1c1ccccc1` (stereo not drawn) [SULFINPYRAZONE], for which the IC50 entry (in assay [1] (sf9); at Glucocorticoid receptor; against Insulin receptor; in assay [2]; in assay [3] (platelet); against Adenosine receptor A1) was “Not Active” throughout. For the same molecule, the IC50 entry (on Acetylcholinesterase; in assay [4]) was “Not Active” in each case.

On to `NC(=O)N1C(=O)/C(=C(\O)c2cccs2)c2cc(Cl)ccc21` [TENIDAP], for which the IC50 result in assay [1] (sf9) was “Not Active”; against Glucocorticoid receptor it was “Not Active”; against Insulin receptor it was “Not Active”; in assay [2], “Not Active”; in assay [3] (read-out: IC50) it was 55 nM; on Adenosine receptor A1 it was “Not Active”. Further, the half-inhibitory concentration (IC50) result (against Acetylcholinesterase; in assay [4]) was “Not Active” throughout.

Regarding `CN(C/C=C/C#CC(C)(C)C)Cc1cccc2ccccc12` [TERBINAFINE], the 50% inhibitory concentration (IC50) entry (in assay [1] (sf9); on Glucocorticoid receptor; at Insulin receptor; in assay [2]; in assay [3] (platelet); against Adenosine receptor A1) was “Not Active” in each case. The IC50 entry (at Acetylcholinesterase; in assay [4]) was “Not Active” throughout.

For `CCCCNc1ccc(C(=O)OCCN(C)C)cc1` [TETRACAINE], the concentration for half-maximal inhibition (IC50) entry (in assay [1] (sf9); against Glucocorticoid receptor; at Insulin receptor; in assay [2]; in assay [3] (platelet); on Adenosine receptor A1) was “Not Active” in each case. Further, the IC50 entry (against Acetylcholinesterase; in assay [4]) was “Not Active” throughout.
